How the values were obtained:
Format in all cases: ADME, organism-based
Conditions in all cases: in vivo
[1] = Cmax in rat at 0.5 mg/kg, iv and 5 mg/kg, po
[2] = Volume of distribution in rat at 0.5 mg/kg, iv and 5 mg/kg, po
Rattus norvegicus = experiment: Liver blood flow in rat at 0.5 mg/kg, iv and 5 mg/kg, po
[3] = Bioavailability in rat at 0.5 mg/kg, iv and 5 mg/kg, po

Cmax [1]: 839 ng/mL
Vd [2]: 0.564 L/kg
LBF (Rattus norvegicus): 55 mL/min/kg
bioavailability [3]: 15%
SMILES: CN1CC(c2ccc(NC(=O)c3nc(C#N)c[nH]3)c(C3=CCCCC3)c2)CN(C)S1(=O)=O

Reference: ChEMBL document CHEMBL1177769, “Reducing ion channel activity in a series of 4-heterocyclic arylamide FMS inhibitors” (Bioorg Med Chem Lett, 2010)
